# Experiments:
# human Gal-3 (hGal-3) = human Gal-3 (hGal-3) (Homo sapiens (Human), UniProt P17931); test: competitive binding assay: biotinylated hGal-3 binding to microplate-adsorbed asialofetuin (ASF); details: Table 5; read-out: IC50 (Gal-3 inhibition)
# Outline: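 Compounds serially diluted in DMSO compete with asialofetuin for biotinylated human Gal-3; plates are incubated 3 h at 4 °C, washed, then treated 1 h at 4 °C with streptavidin-peroxidase (80 ng/mL) and developed with ABTS. IC50 values are means of several measurements.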
# human Gal-1 (hGal-1) = human Gal-1 (hGal-1) (Homo sapiens (Human), UniProt P09382); test: competitive binding assay: biotinylated hGal-1 binding to microplate-adsorbed asialofetuin (ASF); details: Table 15; read-out: IC50 (Galectin-1 inhibition)
# Sequence of human Gal-1 (hGal-1) (P09382 whole entry): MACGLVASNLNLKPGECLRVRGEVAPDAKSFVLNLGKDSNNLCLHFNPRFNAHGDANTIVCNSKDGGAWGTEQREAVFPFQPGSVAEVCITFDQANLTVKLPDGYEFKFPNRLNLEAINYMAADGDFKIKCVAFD
# Outline: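 Biotinylated human Gal-1 (300-1000 ng/mL) competes with serially diluted compound for binding to ASF-coated plates, 3 h at 4° C. Bound protein detected with streptavidin-peroxidase and ABTS substrate (spectrophotometric). IC50 given as mean of several measurements.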
# Sequence of human Gal-3 (hGal-3) (P17931 whole entry): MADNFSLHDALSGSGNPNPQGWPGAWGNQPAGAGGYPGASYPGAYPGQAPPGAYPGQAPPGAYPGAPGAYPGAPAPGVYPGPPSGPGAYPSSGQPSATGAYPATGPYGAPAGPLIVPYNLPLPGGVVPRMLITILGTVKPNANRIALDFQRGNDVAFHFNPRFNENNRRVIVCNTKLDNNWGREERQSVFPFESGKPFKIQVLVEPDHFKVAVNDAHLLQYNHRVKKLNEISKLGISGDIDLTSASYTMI
IC50 (human Gal-3 (hGal-3)),IC50 (human Gal-1 (hGal-1)),Substance
0.38 µM,18.5 µM,"(2S,3R,4S,5R,6R)-2-(((4-Hydroxy-2,2,6,6-tetramethyltetrahydro-2H-pyran-4-yl)(2-(trifluoromethyl)phenyl)methyl)thio)-6-(hydroxymethyl)-4-(4-(3,4,5-trifluorophenyl)-1H-1,2,3-triazol-1-yl)tetrahydro-2H-pyran-3,5-diol [Example 2.42.102.]"
0.12 µM,1.9 µM,"(2S,3R,4S,5R,6R)-2-(((4-Hydroxy-2,2-dimethyltetrahydro-2H-pyran-4-yl)(2-(trifluoromethyl)phenyl)methyl)thio)-6-(hydroxymethyl)-4-(4-(3,4,5-trifluorophenyl)-1H-1,2,3-triazol-1-yl)tetrahydro-2H-pyran-3,5-diol [Example 2.43.102.]"
0.8 µM,1.73 µM,"(2S,3R,4S,5R,6R)-2-(((R)-(2,3-Dichlorophenyl)(4,4-difluoro-1-hydroxycyclohexyl)methyl)thio)-6-(hydroxymethyl)-4-(4-(3,4,5-trifluorophenyl)-1H-1,2,3-triazol-1-yl)tetrahydro-2H-pyran-3,5-diol [Example 2.44.113R.]"
0.06 µM,0.02 µM,"(2S,3R,4S,5R,6R)-2-(((R)-(2-Cyclopropylphenyl)(4,4-difluoro-1-hydroxycyclohexyl)methyl)thio)-6-(hydroxymethyl)-4-(4-(3,4,5-trifluorophenyl)-1H-1,2,3-triazol-1-yl)tetrahydro-2H-pyran-3,5-diol [Example 2.44.106R.]"
0.1 µM,0.81 µM,"(2S,3R,4S,5R,6R)-2-(((R)-(3,3-Difluoro-1-hydroxycyclobutyl)(3-(trifluoromethyl)pyridin-2-yl)methyl)thio)-6-(hydroxymethyl)-4-(4-(3,4,5-trifluorophenyl)-1H-1,2,3-triazol-1-yl)tetrahydro-2H-pyran-3,5-diol [Example 2.35.125R.]"
0.09 µM,6.4 µM,"(2S,3R,4S,5R,6R)-2-(((R)-(4-Hydroxy-2,2,6,6-tetramethyltetrahydro-2H-pyran-4-yl)(2-(trifluoromethyl)phenyl)methyl)thio)-6-(hydroxymethyl)-4-(4-(3,4,5-trifluorophenyl)-1H-1,2,3-triazol-1-yl)tetrahydro-2H-pyran-3,5-diol [Example 2.42.102R.]"
0.29 µM,8.8 µM,"(2S,3R,4S,5R,6R)-2-(((R)-((R)-4-Hydroxy-2,2-dimethyltetrahydro-2H-pyran-4-yl)(2-(trifluoromethyl)phenyl)methyl)thio)-6-(hydroxymethyl)-4-(4-(3,4,5-trifluorophenyl)-1H-1,2,3-triazol-1-yl)tetrahydro-2H-pyran-3,5-diol [Example 2.43.102RR.]"
1.5 µM,6.8 µM,"(2S,3R,4S,5R,6R)-2-(((R)-((R)-4-Hydroxy-2,2-dimethyltetrahydro-2H-pyran-4-yl)(o-tolyl)methyl)thio)-6-(hydroxymethyl)-4-(4-(3,4,5-trifluorophenyl)-1H-1,2,3-triazol-1-yl)tetrahydro-2H-pyran-3,5-diol [Example 2.43.112RR.]"
0.04 µM,0.8 µM,"(2S,3R,4S,5R,6R)-2-(((R)-((S)-4-Hydroxy-2,2-dimethyltetrahydro-2H-pyran-4-yl)(2-(trifluoromethyl)phenyl)methyl)thio)-6-(hydroxymethyl)-4-(4-(3,4,5-trifluorophenyl)-1H-1,2,3-triazol-1-yl)tetrahydro-2H-pyran-3,5-diol [Example 2.43.102RS.]"
0.13 µM,0.4 µM,"(2S,3R,4S,5R,6R)-2-(((R)-((S)-4-Hydroxy-2,2-dimethyltetrahydro-2H-pyran-4-yl)(o-tolyl)methyl)thio)-6-(hydroxymethyl)-4-(4-(3,4,5-trifluorophenyl)-1H-1,2,3-triazol-1-yl)tetrahydro-2H-pyran-3,5-diol [Example 2.43.112RS.]"

# — patent US12404295B2, “(Hetero)aryl-methyl-thio-beta-D-galactopyranoside derivatives” (Idorsia Pharmaceuticals Ltd, priority 2019, dated 2025)
